Inhibition and IC50 data for 20 compounds are collected here from the Kinase Knowledgebase extract (Sharma et al. 2016).

Bounds are passed on as bounds.

This test deals with EGFR (human) (UniProt P00533). As to conditions: for inhibition: nci-h1975, concentration not given here.
Sequence of EGFR (human) (P00533 whole entry, looked up): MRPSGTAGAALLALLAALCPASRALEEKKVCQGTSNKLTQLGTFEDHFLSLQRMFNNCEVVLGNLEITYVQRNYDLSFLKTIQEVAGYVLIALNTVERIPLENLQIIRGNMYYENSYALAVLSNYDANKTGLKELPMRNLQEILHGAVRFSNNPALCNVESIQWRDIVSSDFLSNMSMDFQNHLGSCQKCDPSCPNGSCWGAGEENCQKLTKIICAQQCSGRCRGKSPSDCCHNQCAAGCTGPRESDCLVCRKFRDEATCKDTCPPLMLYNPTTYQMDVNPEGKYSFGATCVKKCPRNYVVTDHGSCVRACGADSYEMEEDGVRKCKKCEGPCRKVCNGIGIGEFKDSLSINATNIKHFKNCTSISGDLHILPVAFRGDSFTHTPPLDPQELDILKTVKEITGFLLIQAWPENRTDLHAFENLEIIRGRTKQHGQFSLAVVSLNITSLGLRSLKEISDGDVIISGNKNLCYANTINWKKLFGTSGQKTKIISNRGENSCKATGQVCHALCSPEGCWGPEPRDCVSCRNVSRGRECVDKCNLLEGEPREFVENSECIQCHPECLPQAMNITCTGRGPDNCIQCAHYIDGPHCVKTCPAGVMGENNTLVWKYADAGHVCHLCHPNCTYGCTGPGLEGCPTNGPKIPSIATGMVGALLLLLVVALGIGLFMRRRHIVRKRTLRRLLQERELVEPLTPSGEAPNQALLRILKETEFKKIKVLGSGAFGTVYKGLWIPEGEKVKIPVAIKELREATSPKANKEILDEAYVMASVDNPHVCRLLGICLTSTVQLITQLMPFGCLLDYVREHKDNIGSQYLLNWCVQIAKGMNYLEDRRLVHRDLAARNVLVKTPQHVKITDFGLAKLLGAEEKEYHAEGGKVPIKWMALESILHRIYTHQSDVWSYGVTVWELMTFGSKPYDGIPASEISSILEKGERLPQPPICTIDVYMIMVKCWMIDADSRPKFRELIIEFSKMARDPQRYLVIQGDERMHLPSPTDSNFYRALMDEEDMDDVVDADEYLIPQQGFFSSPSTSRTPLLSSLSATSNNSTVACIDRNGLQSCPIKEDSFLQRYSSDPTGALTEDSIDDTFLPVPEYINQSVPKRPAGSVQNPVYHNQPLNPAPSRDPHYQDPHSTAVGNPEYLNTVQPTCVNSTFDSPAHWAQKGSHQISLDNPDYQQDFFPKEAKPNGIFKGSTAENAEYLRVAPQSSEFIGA

`CC(C)(C)n1nc(-c2cccc3ccccc23)c2c(N)ncnc21` gave an inhibition of 60%.
Same read-out and setting: the result for `NC(=O)Nc1sc(-c2ccc(F)cc2)cc1C(N)=O` reads 35%; that for `Cc1ccc(NC(=O)c2ccc(CN3CCN(C)CC3)cc2)cc1Nc1nccc(-c2cccnc2)n1`, under 25%.
Compound `CC(Nc1ncnc2[nH]c(-c3ccc(O)cc3)cc12)c1ccccc1` (stereo not given) registered an IC50 (nci-h1975) of 8 µM.
With `O=c1ncn2nc(Sc3ccc(F)cc3F)ccc2c1-c1c(Cl)cccc1Cl`, the inhibition was under 25%.
Still for that read-out and setting: the result for `COc1cc2ncnc(Nc3ccc(OCc4ccccc4)cc3)c2cc1OC` reads under 25%.
As to `Cc1cc(Nc2cc(N3CCN(C)CC3)nc(Sc3ccc(NC(=O)C4CC4)cc3)n2)[nH]n1`, the inhibition was determined as 34%.
Consider `CC(C)(C)c1nc2c3ccc(F)cc3c3c(=O)[nH]ccc3c2[nH]1`, for which the inhibition is under 25%.
Same read-out and setting: to `Cc1cc(Nc2ncc3cc(-c4c(Cl)cccc4Cl)c(=O)n(C)c3n2)ccc1F` belongs 55%.
Same read-out and setting: to `Cc1cc(C)c(/C=C2\C(=O)Nc3ccc(Cl)cc32)[nH]1` belongs under 25%.
The same measure, in the same setting: to `O=C1Nc2ccc(I)cc2/C1=C\c1cc(Br)c(O)c(Br)c1` belongs under 25%; to `c1ccc(-c2n[nH]cc2-c2ccnc3ccccc23)nc1`, under 25%.
As for `O=C(Nc1cc(C(F)(F)F)cc(C(F)(F)F)c1)c1cc(Cl)ccc1O`, the inhibition came out at 76%.
Consider `CC(C)[C@H](CO)Nc1nc(Nc2ccc(C(=O)O)c(Cl)c2)c2ncn(C(C)C)c2n1`, for which the inhibition was under 25%.
Regarding `OCCC#Cc1nc(-c2ccc(F)cc2)c(-c2ccncc2)n1CCCc1ccccc1`, the inhibition is under 25%.
In turn, `O=C1NC(=O)C(c2ccccc2[N+](=O)[O-])=C1Nc1ccc(O)c(Cl)c1` came in with an inhibition of under 25%.
The same measure, in the same setting: to `COc1cccc(-c2cc(=O)c3ccccc3o2)c1N` belongs under 25%; to `Cc1ccc(NC(=O)c2cccc(N(C)C)c2)cc1NC(=O)c1ccc(O)cc1`, under 25%; to `Cn1cc(C2=C(c3ccc(Cl)cc3Cl)C(=O)NC2=O)c2ccccc21`, 37%.
Still for that read-out and setting: to `CC(C)(C)c1cnc(CSc2cnc(NC(=O)C3CCNCC3)s2)o1` belongs 63%.

Usually inhibition stands for the relative decrease from the control value, in per cent. As usually defined, the IC50 is the concentration at which inhibition is half-maximal. Low readings indicate greater potency in that assay, high ones weaker potency in that assay.
